Experimental data as given in patent US20120195986A1, “PREVENTING OR TREATING PERIODONTAL DISEASES BY HERBAL EXTRACT” (priority 2009, published 2012).

Test system: male ICR mice
Assay: In vivo anti-inflammatory activity (croton oil-induced ear inflammation, ear thickness)
Design: species or system mouse
Details: 20 mg/kg orally (positive control)
Description: In order to evaluate in vivo anti-inflammatory activity of the combined extract prepared in Preparation Examples 4 to 7 showing improved osteoblast proliferation and anti-inflammatory activity in the above Experimental Examples 1 and 2 and single extract in Examples 1.1 and 1.2, Hee et. al.'s method was used for the evaluation (Kor J. Pharmacogn. 25(4), 363˜367, 1994, Arch. Pharm. Res. 16(1), 18˜24, 1993.), and the result is shown in Table 2. In Table 2, 20 mg/kg was administered for positive control (Indomethacin, Sigma) and 200 mg/kg was administered for the test groups orally. Dose dependent anti-inflammatory activity was evaluated for the Example 5 with the highest activity, and the result is shown in Table 3. The thickness of ear was measured by using a thickness gauge (model H, Peacock, Japan) for male ICR mice (6 weeks, Samtaco Biokorea) before treating with the formulation. The control and test drug was administered orally, and the inflammation was induced 1 hour after the administration by smearing 10 uL of inflammation inducing material (2.5% croton oil, sigma) dissolved in acetone on the inner and outer ear after immobilizing the mice. In 5 hours, the mice were sacrificed by cervical dislocation and the thickness of the right ear was measured.

## COc1ccc2c(c1)c(CC(=O)O)c(C)n2C(=O)c1ccc(Cl)cc1 [Indomethacin]
  Anti-inflammatory activity (%): 50%
